Measured values: patent US5304548A, “Bivalent ligands effective for blocking ACAT enzyme for lowering plasma triglycerides and for elevating HDL cholesterol” (The Upjohn Company, priority 1992, dated 1994)
≈ marks a conversion by molar mass, not a printed value. Entries after “also recorded” stand apart in the source; their conditions may differ.

Experiments:
[1] = system: acyl-CoA: cholesterol O-acyltransferase enzyme (ACAT); assay: Inhibition of cellular ACAT (esterification of 3H-cholesterol taken up by cells); details: for ACAT inhibition, result in words: comparison bivalent vs. monomeric / by dose; for IC50: ACAT inhibition
[2] = Plasma triglycerides in rats or rabbits whose triglycerides are within normal limits; assay type: in vivo; details: rats or rabbits with triglycerides within normal limits
[3] = Antiatherosclerotic activity, Netherland dwarf rabbits on cholesterol-containing atherogenic diet, twelve weeks; assay type: in vivo, Netherland dwarf rabbit; details: 50 mg/kg/day
Protocol: In another experiment, ACAT inhibitor compound Ia (Table 2) was administered for twelve weeks at 50 mg/kg/day to Netherland dwarf rabbits that were feed a cholesterol-containing atherogenic diet. During the twelve week period serum cholesterol, triglycerides, and carnitine were monitored. At the end of the study the aortas from the drug treated group and a non-drug treated group were examined for atherosclerosis development.

[4] = Hypertriglyceridemia model, female Zucker rats (fafa), compound in chow with cross-over; assay type: in vivo, Zucker rat
Protocol: Female Zucker rats (fafa, 378±3) were maintained on a pelleted chow diet (Purina Chow #5001) or the chow diet which contained Compound Ia (Ia) at a level calculated to deliver 50 mg/kg/day. The Ia containing pellets were prepared from #5001 meal into which the drug had been pre-mixed and subsequently pelletized. […] The plasma was obtained from heparinized blood taken by cardiac puncture and the lipids were measured using an Ektachem DT60 analyzer (Eastman Kodak).

[5] = Antiatherosclerotic activity, SEA quail on high cholesterol diet, oral compound, arteries analysed after eight weeks; assay type: in vivo, SEA Japanese quail; details: statistically significant
Protocol: For example, five to six week old, male, SEA quails were placed on a high cholesterol diet with one group orally receiving the subject ACAT inhibitor compound Ia (Table 2). After eight weeks the arteries were removed, cleaned and homogenized. Total cholesterol, free cholesterol and triglycerides were measured.

[6] = Hypercholesterolemic model, obese female Zucker rats (fa/fa), dose response of plasma lipids after 1 week; assay type: in vivo, Zucker rat; details: genetically obese Zucker rats
Protocol: Obese female Zucker rats (fa/fa) weighing 500-600 g were used in the study. These animals are endogenously hypertriglyceridemic and hypercholesterolemic as was described above. Basal plasma triglycerides, cholesterol, and HDL-C levels were determined in individual rats (Ektachem DT 60 Analyzer) which were then randomly assigned to four Compound Ia (Ia) treatment groups (5 mg/kg, n=4; 10 mg/kg, n=4; 20 mg/kg, n=4; 30 mg/kg, n=3). The animals were all individually housed and received Purina Chow pellets (#5002) containing IA at levels calculated to provide the daily doses of Ia described above. After 1 week, all rats were bled by cardiac puncture for determination of plasma triglycerides, cholesterol, and HDL-C. An additional group of rats (n=3) receiving chow alone was run in parallel with the treatment groups as an additional control for the experiment. Each animal acted as its own control since plasma lipid parameters were measured in each animal immediately prior to dosing. The data for triglycerides, cholesterol, and HDL-C were adjusted for this pre-dosing value using a percent change calculation: ((Post-Pre)/Pre)100 . For all 3 measurements, a simple linear model was fit to the percent change value vs log 10 (dose). The logarithmic transformation was used to linearalize the relationship.

Compound | % ACAT Inhibition ([1]; 5 μg/ml) [%] | % ACAT Inhibition ([1]; 10 μg/ml) [%] | % ACAT Inhibition ([1]; 15 μg/ml) [%] | other results
COc1c2c(c(OC)c3occc13)OC(=CNC1CCCCC1)C2=O [reference compound] | 47 | 55 | 65 | –
COc1c2occc2c(OC)c2c(=O)cc(CN3CCN(CC(O)CN4CCN(Cc5cc(=O)c6c(OC)c7ccoc7c(OC)c6o5)CC4)CC3)oc12 [Compound Ic] | 7 | 13 | 15 | –
COc1c2occc2c(OC)c2c(=O)cc(CN3CCC(C4CCN(Cc5cc(=O)c6c(OC)c7ccoc7c(OC)c6o5)CC4)CC3)oc12 [Compound Id] | 0 | 0 | 0 | –
COc1c2occc2c(OC)c2c(=O)cc(CN3CCC(C)CC3)oc12 [IV, reference compound] | 10 | 27 | 39 | ACAT inhibition, result in words [1]: reduced percent ACAT inhibition
COc1c2c(c(OC)c3occc13)OC(=CNCCCCCCCCNC=C1Oc3c(c(OC)c4ccoc4c3OC)C1=O)C2=O [Compound IX] | 63 | 52 | 51 | ACAT inhibition, result in words [1]: excellent inhibition over its monomeric counterparts; also recorded: surprisingly good inhibitory activity even at the 5 μg/ml dose
COc1c2c(c(OC)c3occc13)OC(=CNCc1ccccc1)C2=O [reference compound] | 50 | 66 | 78 | –
COc1c2c(c(OC)c3occc13)OC(=CN1CCC(CCCC3CCN(C=C4Oc5c(c(OC)c6ccoc6c5OC)C4=O)CC3)CC1)C2=O [Compound VII] | – | – | – | ACAT inhibition, result in words [1]: active at the high dose tested (15 μg/ml)
COc1c2occc2c(OC)c2c(=O)cc(CN3CCN(CCN4CCN(Cc5cc(=O)c6c(OC)c7ccoc7c(OC)c6o5)CC4)CC3)oc12 [Compound Ib] | 5 | 6 | 2 | –
COc1c2occc2c(OC)c2c(=O)cc(CN3CCC(CCCC4CCN(Cc5cc(=O)c6c(OC)c7ccoc7c(OC)c6o5)CC4)CC3)oc12 [Compound I] | 68 | 84 | 91 | IC50 [1]: 4.2 µg/mL (≈ 5.78 µM); ACAT inhibition, result in words [1]: enhanced potency
COc1c2occc2c(OC)c2c(=O)cc(CN3CCC(CCC4CCN(Cc5cc(=O)c6c(OC)c7ccoc7c(OC)c6o5)CC4)CC3)oc12 [Compound Ia] | 87 | 84 | 75 | IC50 [1]: 0.8 µg/mL (≈ 1.12 µM); effect on plasma triglyceride levels [2]: very little effect on plasma triglyceride levels; mean serum cholesterol level ([3]; control exceeded 2200 mg/dl): 271 mg/dL; atheromatous lesion development ([3]; extensive in controls): negligible atheromatous lesion development; development of hypercholesterolemia ([3]; vs. control): less extensive development of hypercholesterolemia; mean plasma cholesterol ([4]; Ia administration, 50 mg/kg/day, from 126±18): 174 ± 8 mg/dL; plasma cholesterol, cross-over ([4]; controls crossed over to Ia at day 27, from 118±24, three of four animals increased): 164 ± 22 mg/dL; plasma triglycerides, cross-over ([4]; controls crossed over to Ia, 5 day cross-over period, from 2872±742): 656 ± 242 mg/dL; plasma cholesterol after withdrawal ([4]; drug withdrawn day 16): restored essentially to pretreatment levels; plasma triglycerides after withdrawal ([4]; drug withdrawn on day 16, within 1 week): essentially returned to pretreatment levels within 1 week; plasma triglycerides, lowest level reached ([4]; from levels as high as 3000 mg/dl): less than 300 mg/dl; plasma triglycerides ([4]; within 8 days of addition to diet, 50 mg/kg/day, from group mean 2431±446): 260 ± 52 mg/dL; reduction in the accumulation of esterified cholesterol in the arteries [5]: thirty; plasma HDL cholesterol, result in words [6]: dose dependent elevation of plasma HDL cholesterol; also recorded: significant linear positive relationship between the % change HDL-C and log 10 (dose); also recorded: ability to elevate HDL-cholesterol; plasma total cholesterol, result in words [6]: without significant changes in plasma total cholesterol; also recorded: hypotriglyceridemic effect can be dissociated from a tendency to elevate plasma cholesterol; plasma triglycerides, result in words [6]: dose-dependent reduction in plasma triglycerides; also recorded: significant negative relationship between % change in plasma triglycerides and log 10 (dose); also recorded: confirmed the triglyceride lowering activity
COc1c2c(c(OC)c3occc13)OC(=CNCCCN1CCN(CCCNC=C3Oc4c(c(OC)c5ccoc5c4OC)C3=O)CC1)C2=O [Compound VIII] | 32 | 41 | 49 | –
COc1c2occc2c(OC)c2c(=O)nc(N3CCC(CCCC4CCN(c5nc(=O)c6c(OC)c7ccoc7c(OC)c6o5)CC4)CC3)oc12 [Compound II] | 60 | 89 | 97 | IC50 [1]: 1.8 µg/mL (≈ 2.57 µM)
COc1c2oc([Si](C)(C)C)cc2c(OC)c2c(=O)cc(CN3CCC(CCC4CCN(Cc5cc(=O)c6c(OC)c7cc([Si](C)(C)C)oc7c(OC)c6o5)CC4)CC3)oc12 [Compound VI] | 18 | 29 | 52 | –
COc1c2c(c(OC)c3occc13)OC(=CN1CCC(CCCC3CCN(C=C4Oc5c(c(OC)c6ccoc6c5OC)C4=O)CC3)CC1)C2=O [Compound III] | 18 | 29 | 52 | –
COc1c2c(c(OC)c3c(=O)cc(CN4CCC(CCC5CCN(Cc6cc(=O)c7c(OC)c8c(c(OC)c7o6)OCC8)CC5)CC4)oc13)CCO2 [Compound V, 7,7'-(1,2-Ethanediylbis(4,1-piperidinediylmethylene))bis-2,3-dihydro-4,9-dimethoxy-5H-furo(3.2-g)(1)benzopyran-5-one] | 63 | 73 | 74 | IC50 [1]: 3.0 µg/mL (≈ 4.19 µM)
